# Measurements reported in US12156859B2, “Methods of and compositions for treating obesity, obesity-related diseases or cancers using a N6-methyllysine/l-lysine mixture” (Tainnovation Inc, priority 2021, dated 2024).
# “Also recorded” adds a separate entry of the source.
# Key:
# DUSP6 / cold microbiota = assay: 16S rRNA microbiota analysis of BCI-CR versus Vehicle-CR mice (cold-room temperature transition); assay type: in vivo; settings: during the cold-RT transition, BCI-CR vs Vehicle-CR, 16S rRNA sequencing
# Text: FIG. 1B illustrates the cold induced gut bacteria that is regulated by DUSP6 inhibition by injecting DUSP6 inhibitor, (E/Z)-BCI hydrochloride, into the mice underwent cold-room temperature (CR) transition.
# To search the potential Nε-Methyl-L-lysine producers in cold microbiota, we performed the microbiota analysis on 16S rRNA sequencing data of BCI-CR and Vehicle-CR microbiota.
# [1] = system: perigonadal white adipose tissue (pWAT) and inguinal white adipose tissue (iWAT); assay: Adipose tissues reducing experiment: 14-day oral administration to chow diet-fed mice, body weight and pWAT/iWAT mass; assay type: in vivo, male C57BL/6J mice; settings: chow diet-fed male mice, fourteen days
# Procedure: To test the browning-activating and WAT-reducing abilities of Nε-Methyl-L-lysine, 8-week-old male C57BL/6J mice were orally administrated of L-lysine (150 mM), Nε-Methyl-L-lysine (150 mM) (100 ul/mouse/Day) or vehicle (water; 100 ul/mouse/Day) for 14 days.
# (§1) 14 days after treatment, the L-lysine (150 mM), Nε-Methyl-L-lysine (150 mM) (100 ul/mouse/Day) or vehicle (water; 100 ul/mouse/Day) treated mice were sacrificed and the perigonadal white adipose tissue (pWAT) and inguinal white adipose tissue (iWAT) were collected and weighted for measuring the reducing effects of L-lysine, Nε-Methyl-L-lysine and vehicle. To test the browning-activating abilities of L-lysine, Nε-Methyl-L-lysine and vehicle control in pWAT and iWAT of treated mice, total RNA of WAT was extracted by using RNeasy Lipid Tissue kits. The concentration and quality of RNA were measured by NanoDrop spectrophotometer. For qRT-PCR analysis of browning marker gene Ucp1 and beta-oxidation gene Cpt1b, complementary DNA was obtained by using M-MLV Reverse Transcriptase with oligo-dT primers. qRT-PCR was performed with SYBR-green master on a MyGo Pro PCR system.
# FIG. 6 illustrates a method of using Nε-Methyl-L-lysine to reduce the total mass of subcutaneous and perigonadal white adipose tissues without reducing total body weight. It is orally administered Nε-Methyl-L-lysine (100 μg Nε-Methyl-L-lysine/g body weight/per day, body weights before treatment, body weights 7 days after treatment, body weights 14 days after treatment) into eight weeks old male C57/BL6 mice for fourteen days. […] Data are presented as mean±SEM and significance is calculated by one-way ANOVA followed by Tukey's multiple comparison test. *P<0.05. **P<0.01.
# [2] = system: CDAHFD-induced NASH and liver fibrosis; assay: NASH and liver fibrosis test (CDAHFD-fed mice); assay type: in vivo, male C57BL/6J mice
# Procedure: (§2) Tissues were fixed in 4% neutral-buffered formalin (Sigma), paraffin-embedded, sectioned, and stained with hematoxylin and eosin (H&E) or subjected to immunohistochemistry analysis. For adipose tissue, the 5 μm FFPE sections of pWAT and iWAT were deparaffinated and stained with H&E. The mean adipocyte area and adipocyte size distribution were determined by using Adiposoft software. For quantifying lipid droplets in liver tissues, the 5 μm FFPE liver sections were deparaffinated and stained with H&E. The mean lipid droplets area was determined by using Image J software.
# Groups of 6-week-old male C57BL/6J mice were fed in choline-deficient, L-amino acid-defined, high-fat diet (CDAHFD; #A06071302) purchased from Research Diets (New Brunswick, NJ, USA) or chow diet for 4 weeks. After two weeks of CDAHFD treatment, mice were orally administrated L-lysine (150 mM), Nε-Methyl-L-lysine (150 mM) (100 ul/mouse/Day) or vehicle (water; 100 ul/mouse/Day) for 14 days with continuing CDAHFD treatment. Bodyweight was measured weekly. After sacrifice, the serum of mice was collected and stored at −80° ° C. The serum levels of aspartate aminotransferase (AST) and alanine aminotransferase (ALT) were measured with biochemistry slides for a chemistry analyzer (FUJI DRI-CHEM 4000i, Fujifilm Corporation, Japan). For hepatic fibrosis staining, the 5 μm FFPE liver sections were deparaffinated and stained with a Trichrome staining kit according to the manufacturer's instructions.
# 8-weeks old male C57BL/6 mice are fed with a choline-deficient, L-amino acid-define, high-fat diet (CDAHFD) (Research Diet, Inc. […]) for 4 weeks to induce NASH and liver fibrosis. During the third and fourth week of CDAHFD treatment, it is orally administered Nε-Methyl-L-lysine (100 μg Nε-Methyl-L-lysine/g body weight/per day) into mice for fourteen days. […] Data are presented as mean±SEM. Kruskal-Wallis test is used in FIG. 4 (a and b) Mann-Whitney t-tests are used in FIG. 4 (c and d) to indicate significant differences between groups. *P<0.05. *P<0.005. *P<0.0005. *P<0.00005.
# [3] = system: adipocytes of pWAT and iWAT; assay: Histological examination of pWAT and iWAT (H&E, Adiposoft adipocyte area and size distribution); assay type: in vivo, male C57BL/6J mice; settings: vs vehicle
# Procedure: as §2
# [4] = system: differentiated 3T3-L1 adipocytes; assay: Cell differentiation experiment: Oil Red-O lipid staining and Ucp1 qPCR; assay type: cell-based; settings: 150 μM
# Procedure: The differentiation of 3T3-L1 cells was performed by using 3T3-L1 DIFFERENTIATION KIT (DIF001, Merck). After differentiation, cells were maintained in a complete medium containing […] Nε-Methyl-L-lysine and vehicle control for 7 days before the harvest. After treatments, cells were subjected to RNA extraction and qPCR analysis of Ucp1 and Cpt1b mRNA expression. For quantifying the lipid accumulation in cells, cells were fixed with in 4% neutral-buffered formalin and stained with Oil Red-O reagent.
# FIG. 5 illustrates a method of using Nε-Methyl-L-lysine to inhibit lipid storage and promote adipose browning in differentiated 3T3-L1 adipocytes in accordance with some embodiments. 3T3-L1 cells (SP-L1-F) are purchased from a commercial available source. It is maintained and differentiated 3T3-L1 preadipocytes. After differentiation, differentiated 3T3-L1 adipocytes are treated by post-differentiation medium containing vehicle (H2O) or Nε-Methyl-L-lysine (150 μM). […] Data are collected from three independent experiments (FIGS. 5a and 5b) and presented as mean±SEM. Mann-Whitney t-tests are used to indicate significant differences between groups. *P<0.05. **P<0.01. ****P<0.0001.
# gut microbiota = assay: Gut microbiota control experiment (14-day oral administration); assay type: in vivo, male C57/BL6 mice
# Procedure: 14 days after treatment, the fecal pellets of L-lysine (150 mM), Nε-Methyl-L-lysine (150 mM) (100 ul/mouse/Day) or vehicle (water; 100 ul/mouse/Day) treated mice were collected for DNA extraction. PCR amplification was performed on extracted DNA for 16s rDNA amplicons by using the primers targeting the V3-V4 region (primer set: 341F-805R). 16s rRNA amplicons were sequenced on an Illumina Miseq platform and generated 300 bp paired-end reads. Raw data were obtained with barcodes sequences cleaned up. The sequencing data was analyzed using the QIIME 2 platform (version: 2020.8).
# (§3) It is orally administered Nε-Methyl-L-lysine (100 μg Nε-Methyl-L-lysine/g body weight/per day) into eight weeks old male C57/BL6 mice for fourteen days. Fourteen days after treatment, perigonadal adipose tissues of vehicle (H2O) treated mice and Nε-Methyl-L-lysine treated mice were collected for qPCR analyses. […] Data are presented as mean±SEM. Mann-Whitney t-tests are used to indicate significant differences between groups. *P<0.05.
# Ucp1 and Cpt1b = assay: qRT-PCR of browning marker gene Ucp1 and beta-oxidation gene Cpt1b in white adipose tissue of treated mice; assay type: in vivo, male C57BL/6J mice; settings: perigonadal adipose tissue, 14 days after oral treatment, qPCR, vs vehicle
# Procedure: as §1
# as §3, with “Beiging and β-oxidation are two major fat-burning mechanism of white adipose tissues controlled by the expression of Ucp-1 and CPT-1 gene respectively. […] It” for “It”, “14” for “Fourteen”, “are” for “were”
# [5] = CDAHFD 4 weeks, oral treatment during third and fourth week
# [6] = 100 μg/g body weight/per day oral, fourteen days, vs vehicle
compound,measurement,setting,value
Cl.O=C1/C(=C/c2ccccc2)C(NC2CCCCC2)c2ccccc21 (mixture of isomers) [(E/Z)-BCI hydrochloride],"abundance of Lachospiraceae bacterium, Marvinbryantia uncultured bacterium, Peptococcaceae uncultured bacterium, Bifidobacterium pseudolongum and Gordonnibacter uncultured bacterium",DUSP6 / cold microbiota,significantly regulates the abundance
NCCCC[C@H](N)C(=O)O [L-lysine],total mass of iWAT (subcutaneous white adipose tissues),[1],did not show significant effects
same,total mass of pWAT (perigonadal white adipose tissues),[1],did not show significant effects
same,"serum ALT level, CDAHFD compared with chow-diet fed mice",[2]; [5],significantly increased
same,"serum AST level, CDAHFD compared with chow-diet fed mice",[2]; [5],significantly increased
CNCCCC[C@H](N)C(=O)O [Nε-Methyl-L-lysine],sensitivity of visceral pWAT versus subcutaneous iWAT to the substance,[1],higher sensitivity
same,total mass of iWAT (subcutaneous white adipose tissues),[1],dramatically reduced
same,total mass of pWAT (perigonadal white adipose tissues),[1],dramatically reduced
same,body weight,"[1]; 150 mM 100 ul/mouse/Day (100 μg/g body weight/per day), vs vehicle or L-lysine",did not significantly change the body weight; also recorded: did not change the mice body weights
same,mean adipocyte area and distribution of adipocyte size of pWAT and iWAT,[3]; Adiposoft software,significantly reduced
same,adipocyte size in iWAT (histological examination),[3]; H&E sections,significantly reduced adipocyte size
same,adipocyte size in pWAT (histological examination),[3]; H&E sections,significantly reduced adipocyte size
same,"serum ALT level, CDAHFD compared with chow-diet fed mice",[2]; [5],significantly increased
same,"reducing AST/ALT ratio, compared with lysine",[2]; mice fed with a CDAHFD,better effect than lysine
same,"reducing serum AST level, compared with lysine",[2]; mice fed with a CDAHFD,better effect than lysine
same,liver lipid droplets,"[2]; mice fed with a CDAHFD, oral 14 days",promising effect on reducing
same,liver fibrosis,"[2]; mice fed with a CDAHFD, oral 14 days, trichrome stain",promising effect on reducing
same,lipid storage (oil-red O staining),[4]; vs vehicle (H2O),significantly reduce lipid storage
same,browning marker Ucp-1 expression,[4]; vs vehicle-treated cells,significantly induce
same,number of bacteria classified in the Actinobacteria phylum in gut,gut microbiota; [6],capable of increasing the number
same,number of bacteria classified in the Bacilli class in gut,gut microbiota; [6],capable of increasing the number
same,number of bacteria classified in the Bacteroidia phylum in gut,gut microbiota; [6],capable of increasing the number
same,number of bacteria classified in the Bifidobacterium genus in gut,gut microbiota; [6],capable of increasing the number
same,number of bacteria classified in the Coriobacteriia class in gut,gut microbiota; [6],capable of increasing the number
same,number of bacteria classified in the Lactobacillus genus in gut,gut microbiota; [6],capable of increasing the number
same,number of bacteria classified in the Saccharimonadia class in gut,gut microbiota; [6],capable of increasing the number
same,number of bacteria classified in the Verrucomicrobiota phylum in gut,gut microbiota; [6],capable of increasing the number
same,total bacterial load,gut microbiota; [6],capable of increasing the total bacterial load
same,number or relative percentage of Akkernmansia muciniphilla in gut,gut microbiota; FIG. 8j,increase the number or relative percentage
same,expression of Cpt1b (β-oxidation marker gene) in pWAT,Ucp1 and Cpt1b,significantly induced the expression
same,expression of Ucp-1 (browning marker gene) in pWAT,Ucp1 and Cpt1b,significantly induced the expression
same,expression of Cpt1b (β-oxidation marker gene) in pWAT,Ucp1 and Cpt1b; listed as Nε-Methyl−1-lysine,enhanced the expression
same,expression of Ucp-1 (browning marker gene) in pWAT,Ucp1 and Cpt1b; listed as Nε-Methyl−1-lysine,enhanced the expression
